In PubChem BioAssay (NCI):
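Each compound was tested at five concentrations against cells in 96-well plates for 48 hours. GI50 marks 50% less growth. The concentration for full growth arrest is given as TGI.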

Experiments:
Assay in all cases: inhibition of tumour cell growth, NCI panel, 48 h
[1] = test system: NCI-H460 lung
[2] = test system: OVCAR-5 ovarian
[3] = test system: RXF 393 renal
[4] = test system: COLO 205 colon
[5] = test system: SNB-19 CNS
[6] = test system: OVCAR-3 ovarian
[7] = test system: MDA-MB-435
[8] = test system: 786-0 renal
[9] = test system: UO-31 renal
[10] = test system: HCC-2998 colon

Row | Compound | GI50 [1] [nM] | TGI [1] [µM] | GI50 [2] [nM] | TGI [2] [µM] | GI50 [3] [µM] | TGI [3] [µM] | GI50 [4] [µM] | TGI [4] [µM] | GI50 [5] [µM] | TGI [5] [µM] | GI50 [6] [nM] | TGI [6] [µM] | GI50 [7] [nM] | TGI [7] [µM] | GI50 [8] [nM] | TGI [8] [µM] | GI50 [9] [nM] | TGI [9] [µM] | TGI [10] [µM] | GI50 [10] [µM]
1 | CCCCCC(=C/c1ccccc1)/C=N/N=C(N)N | 1570 | 3.13 | 1740 | 3.69 | 1.72 | 3.15 | 1.65 | 3.17 | 1.85 | 4.15 | 1270 | 2.56 | 1700 | 3.28 | 1600 | 3 | 1190 | 2.5 |  | 
2 | CCN(CC)/[N+]([O-])=N/OCC(C)O (stereo not drawn) |  | > 100 |  | > 100 |  | > 100 |  |  |  | > 100 |  | > 100 |  |  |  | > 100 |  | > 100 | > 100 | 
3 | CN[C@H]1CC[C@]23C[C@]24CC[C@]2(C)[C@@H]([C@H](C)N(C)C)CC[C@@]2(C)[C@@H]4CC[C@H]3C1(C)C |  | 37.2 |  | 60.7 |  |  |  | 25.2 |  | 43.3 |  | 33.6 |  | 29.8 |  | 19.8 |  | 24.5 | 28.7 | 
4 | COc1ccc(C(=O)c2cc(C)c(OC)c(C)c2)c(OC)c1N(C(=O)CCl)C(=O)CCl | 38.6 | 1.3 | 101 | > 53.6 |  |  | 0.104 | 17.6 | 0.05 | > 71.1 | 39.8 | 1.58 |  |  | 47.4 | 15.4 | 82.9 | 24.9 | 7.35 | 0.0803
5 | CSC1SCC2C(=O)N(C)C(C(C)C)C(=O)OCC(NC(=O)c3cnc4ccccc4n3)C(=O)NC(C)C(=O)N(C)C1C(=O)N(C)C(C(C)C)C(=O)OCC(NC(=O)c1cnc3ccccc3n1)C(=O)NC(C)C(=O)N2C (stereo not drawn) | < 1 |  | < 1 |  | < 0.001 |  | < 0.001 |  | < 0.001 |  | < 1 |  |  |  | < 1 |  | 3.28 |  |  | < 0.001
6 | C#CCN(Cc1nc2cc(C(F)(F)F)ccc2nc1-c1ccccc1)c1ccc(F)cc1 | 27800 | > 100 | 75600 | > 100 | 41 | > 100 | 13.8 | 50.5 | 34.9 | > 100 | 29800 | > 100 | 38000 | > 100 | 20400 | 54 | 31200 | > 100 |  | 
7 | COc1cc(/C=C2\Cc3ccccc3C2=O)cc(OC)c1OC |  | > 100 |  | > 100 |  | > 100 |  | > 100 |  | > 100 |  | > 100 |  |  |  | > 100 |  | > 100 | > 100 | 
8 | COc1cc2c(cc1OC)-c1ncc3cc(OC)c(OC)cc3c1C2 | > 50000 | > 50 | > 50000 | > 50 | > 50 | > 50 | > 50 | > 50 | > 50 | > 50 | > 50000 | > 50 | > 50000 | > 50 | > 50000 | > 50 | > 50000 | > 50 |  | 
9 | C/C(=N\NS(=O)(=O)c1c(C)cc(C)cc1C)c1ccc[n+]([O-])n1 |  | > 100 |  | 56.1 |  |  |  |  |  | > 100 |  | 25.3 |  |  |  | 36 |  | 52.8 | > 100 | 
10 | CC(C)(C)C1CCC(=O)C(C(O)CC2CC(=O)N(c3ccccc3)C(=O)C2)C1 (stereo not drawn) |  | > 100 |  | > 100 |  | > 100 |  | > 100 |  | > 100 |  | > 100 |  |  |  | > 100 |  | > 100 | > 100 | 
11 | CC(C)=CCC/C(C)=C/CC/C(C)=C/C1CCC(=O)C1(C)C (stereo not drawn) |  | 32.6 |  | 39.7 |  | 37.5 |  | 30.8 |  | 65.2 |  | 32.5 |  |  |  | 32.2 |  | 31.7 | 38.2 | 
12 | CC(=O)Oc1cc(Cl)c(OC(C)=O)c2c(OC(C)=O)c(C)c(O[Si](C)(C)C(C)(C)C)cc12 |  | 16.5 |  |  |  | 11.2 |  | 32.5 |  | 25.7 |  | 29.3 |  |  |  | 28.1 |  | 26.3 | 15.5 | 
13 | COC(=O)C1=C(O)c2cc3c(cc2[C@H](c2cc(OC)c(OC)c(OC)c2)C1)OCO3 |  | > 100 |  | > 100 |  | > 100 |  | 34.7 |  | > 100 |  | 55.7 |  |  |  | > 100 |  | 36.3 |  | 
14 | COc1c(Cl)[c]([Hg][O]C(C)=O)c(NCC(C)=O)c(OC)[c]1[Hg][O]C(C)=O | 33200 | > 100 | 38700 | 90.9 | 14.4 | 30.4 | 22 | 54.5 | 3.53 | 11.2 | 10200 | 21.8 |  |  | 3440 | 12.9 | 22000 | 40 | 39.1 | 16.9
15 | [N-]=[N+]=NC1C2CC3CC(C2)CC1C3 (stereo not drawn) |  | > 100 |  | > 100 |  |  |  | > 100 |  | > 100 |  | > 100 |  |  |  | > 100 |  | > 100 | > 100 | 
16 | Cn1cc2ccccc2c1-c1nc(F)nc(Nc2ccc(N)cc2)n1 |  | 31.5 |  | 61.9 |  | 45 |  |  |  | 95.5 |  | 48.3 |  |  |  | 64 |  | 53.8 | 32.1 | 
17 | OCCCCCNc1ccnc2cc(Cl)ccc12 |  | > 100 |  | > 100 |  | > 100 |  | > 100 |  | > 100 |  | > 100 |  |  |  | > 100 |  | > 100 | > 100 | 
18 | Cc1nc(-n2nc(-c3ccccc3)cc2-c2ccccc2)sc1C(=O)/C=C/c1ccc(Cl)cc1 |  | 76.5 |  | > 100 |  | 28.1 |  | 30.1 |  |  |  | 35.6 |  |  |  | 27.4 |  | 21.1 | 29.9 | 
19 | O=c1c(-c2nc3ccccc3[nH]2)cc2ccccc2n1Cc1cn(Cc2ccccc2Cl)nn1 | 2010 | 3.88 | 2100 | 4.78 |  |  |  |  | 4.32 | 28.3 | 2010 | 4.17 | 1900 | 3.93 | 1660 | 3.27 | 1330 | 2.88 | 37.4 | 4.19
